{
  "source": "patent US9532941B2",
  "about": "“Method for treatment of hair loss with a combination of natural ingredients” (priority 2011, dated 2017)",
  "origin": "cited, not measured here",
  "key": {"human 5-α-reductase": {"test_system": "human 5-α-reductase", "conditions": "cell free assay in vitro"}, "human hair": {"test_system": "human hair", "conditions": "in vitro exposure; cell proliferation markers"}},
  "data": [
    {"compound": "epigallocatechin-3-gallate [EGCG]", "values": [
      {"measurement": "inhibition of human 5-α-reductase, cell free", "setting": "human 5-α-reductase", "value": "potently inhibited"},
      {"measurement": "human hair growth", "setting": "human hair", "value": "stimulates human hair growth"}
    ]},
    {"compound": "Cn1c(=O)c2c(ncn2C)n(C)c1=O", "note": "[caffeine]", "values": [
      {"measurement": "counteraction of testosterone-induced growth suppression", "setting": "human hair follicles; caffeine 0.001% and 0.005%, 5 mg/ml testosterone", "value": "counteracted"},
      {"measurement": "hair follicle growth, caffeine alone", "setting": "human hair follicles; caffeine alone", "value": "significant stimulation of hair follicle growth"}
    ]},
    {"compound": "C[C@]12CC[C@H]3[C@@H](CCC4=CC(=O)CC[C@@]43C)[C@@H]1CC[C@@H]2O", "note": "[testosterone]", "values": [
      {"measurement": "growth of hair follicles", "setting": "human hair follicles; hair follicles treated with 5 mg/ml testosterone", "value": "Significant growth suppression"}
    ]}
  ]
}
